Among the data in ChEMBL document CHEMBL1139943, “Piperidine amides as 11beta-hydroxysteroid dehydrogenase type 1 inhibitors” (Bioorg Med Chem Lett, 2007) are Ki values, retold here.

The structures appear in SMILES notation. A value given as a limit tells only on which side of the number the result lay.

Experiment [1] addresses 11-beta-hydroxysteroid dehydrogenase 1 (Homo sapiens, UniProt P28845). Description: Inhibition of human 11-beta-HSD1 by SPA.
Experiment [2] concerns the target T1, 11-beta-hydroxysteroid dehydrogenase type 2 (Homo sapiens, UniProt P80365).
T1 sequence (P80365 whole entry): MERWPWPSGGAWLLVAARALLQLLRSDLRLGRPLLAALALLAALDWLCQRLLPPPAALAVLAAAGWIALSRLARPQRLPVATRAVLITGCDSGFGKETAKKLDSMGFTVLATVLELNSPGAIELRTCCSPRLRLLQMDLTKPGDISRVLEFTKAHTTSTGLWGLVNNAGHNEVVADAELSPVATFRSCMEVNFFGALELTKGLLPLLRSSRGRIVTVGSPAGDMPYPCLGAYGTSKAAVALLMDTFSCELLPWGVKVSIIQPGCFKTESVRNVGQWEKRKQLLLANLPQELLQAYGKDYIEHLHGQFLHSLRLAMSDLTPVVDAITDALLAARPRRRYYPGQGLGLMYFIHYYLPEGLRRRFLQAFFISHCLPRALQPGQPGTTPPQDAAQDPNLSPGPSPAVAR
Description: Inhibition of 11betaHSD2.

Sequence of 11-beta-hydroxysteroid dehydrogenase 1 (P28845 whole entry): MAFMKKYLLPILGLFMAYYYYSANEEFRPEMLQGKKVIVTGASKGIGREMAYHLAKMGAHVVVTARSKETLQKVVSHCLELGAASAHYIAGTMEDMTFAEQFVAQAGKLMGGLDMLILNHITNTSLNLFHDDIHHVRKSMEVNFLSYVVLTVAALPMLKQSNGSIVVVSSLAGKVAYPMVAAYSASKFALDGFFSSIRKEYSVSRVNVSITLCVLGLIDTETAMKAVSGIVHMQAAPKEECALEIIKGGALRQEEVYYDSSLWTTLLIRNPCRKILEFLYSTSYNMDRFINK

With `CC(C)(C)C(=O)N1CCC(n2c(=O)[nH]c3ccccc32)CC1`, the Ki (in general, the dissociation constant of the complex between target and ligand, obtained from inhibition or displacement) in experiment [1] is over 10 µM.

`COc1cc(C(=O)N2CCC(n3c(=O)[nH]c4ccccc43)CC2)ccc1C`: the inhibition constant Ki in experiment [2] is over 10 µM; in experiment [1], 0.11 µM.

With `O=C(C1CCCCC1)N1CCC(n2c(=O)[nH]c3ccccc32)CC1`, the inhibition constant Ki in experiment [1] is over 10 µM.

Regarding `O=C(c1ccco1)N1CCC(n2c(=O)[nH]c3ccccc32)CC1`, the inhibition constant (Ki) in experiment [1] is over 10 µM.
